This note sets out measurements from patent publication US11591564B2, “Peptide conjugated hydrogel substrate for the maintenance and expansion of human pluripotent stem cells” (University of Pittsburgh—Of the Commonwealth System of …, priority 2016, dated 2023).

In data set [1] the test system is hESCs. The data set can be described thus: hESC attachment and viability on HAV10-modified LBL films, effect of EDC/NHS concentration. The class given is cell-based. Particulars: EDC/NHS used for HAV10 conjugation of PEI(Alg/PAH)5Alg films; 6 hours attachment. How it is done: Layer-by-layer (LBL) coating onto glass coverslips was initiated by incubation in 1.1 mg/ml Polyethylenimine (PEI) for 5 min. The polyelectrolyte solutions used for LBL deposition were 1.1 mg/ml low viscosity alginate (Alg) and poly (allylamine hydrochloride) (PAH), made using 0.1 M 2-(N-morpholino) ethanesulfonic acid (MES) buffer with 0.3M NaCl at pH 6.5. Polyelectrolyte multilayers were deposited by alternatively immersing slides into Alg, followed by PAH, for 1 min each, and were subsequently washed with 0.9% NaCl for 1 min between each deposition step. This process was repeated for 5 Alg/PAH layers, and the film was terminated with a final Alg layer (PEI(Alg/PAH)5Alg). Coverslips were dried at room temperature until used.
Prepared PEI(Alg/PAH)5Alg films were functionalized with the e-cadherin mimicking peptide HAV10 using water soluble carbodiimide chemistry. […]
Human embryonic stem cells (hESCs) were treated with the ROCK inhibitor Y-27632 for 2 hours prior to harvesting. hESCs were harvested using enzyme-free dissociation buffer and were treated with the Vibrant DiD cell labeling solution, to allow for visualization of cell attachment (700 nm). […] Cell attachment for each condition was determined by normalizing the MFI of attached cells to the MFI of the total possible number of cells, for each well imaged.

Data set [2] concerns hPSCs. Conditions: hPSCs encapsulated in alginate beads (3D), 10-100 mM BaCl2 tested, day 6.
Experimental: hESCs were encapsulated using 10, 15, 20, 50 or 100 mM BaCl2 at a seeding density of 1×10^6 cells/ml of alginate solution. Alginate capsules were incubated for 6-8 min in the BaCl2 solution. Capsules were washed three times with DMEM/F12 and suspended in mTeSR1 ([sequence] Technologies, Vancouver, BC) with 10 mM of the ROCK inhibitor (rho-associated, coiled-coil containing protein kinase inhibitor) Y-27632 (e.g., 4-[(1R)-1-aminoethyl]-N-4-pyridinyl-trans-cyclohexanecarboxamide, dihydrochloride, [sequence] Technologies, Vancouver, BC) for 4 days, followed by 2 days in mTeSR1 alone to allow for colony formation. On day 6, viability of encapsulated hPSCs was analyzed by LIVE/DEAD staining, and imaged with fluorescent microscopy. The stock LIVE images from LIVE/DEAD analysis were processed using Metamorph Integrated Morphometry Analysis. hPSC colony data was generated for each colony within each image, measuring the area of the colony. This image processing was done on images taken on 5 capsules, each day for each condition.
Data set [3] relates to H1 hESCs. Description: Day 1 cell attachment to peptide conjugated alginate hydrogel (DiD label, LI-COR MFI). The format is cell-based, human. Conditions: peptide conjugated to alginate at 0-500 μg/ml. How it is done: The alginate hydrogels were formed prior to peptide attachment. The culture well was coated with a thin layer of 1.1% (w/v) low viscosity alginate (Sigma-Aldrich) with 0.2% (v/v) gelatin (Sigma-Aldrich), which was allowed to dry overnight. 20 mM BaCl2 was used to rehydrate and simultaneously cross link the alginate in a thin hydrogel covering the bottom of the culture well. Peptide conjugation was done using water soluble carbodiimide chemistry. Alginate hydrogels were activated by incubating with 20 mM/10 mM EDC/NHS in buffer containing 0.3 M 2-(N-morpholino) ethanesulfonic acid (MES) and 0.1 M NaCl, for 15 min. The peptides were then added and incubated overnight at 4° C. to allow for peptide conjugation to the […] of the alginate hydrogel. After conjugation, peptide modified hydrogels were washed with 0.9% saline prior to seeding cells.
Cell Attachment. For cell attachment studies to the peptide modified hydrogels, hESC were first labeled with DiD according to manufactures instruction, a fluorescent lipophilic dye, which is incorporated in the cell membrane. hESC were treated with 10 μm Y-27632 (R&D Systems, Minneapolis, Min.) for 2 hours prior to harvesting by Accutase (Invitrogen) treatment for 5-7 min. […] Cell attachment was analyzed 24 hours after seeding. First, total cell number per well was quantified using the LI-COR Odyssey scanner and Image Studio software to obtain the total possible MFI. Dead and unattached cells were washed away and the number of attached cells per well was again quantified using the LI-COR Odyssey scanner Image Studio software. […]
Having confirmed peptide conjugation to the alginate hydrogel, our first step was to analyze cell attachment to each peptide conjugated substrate. […] After 1 day, cell attachment was quantified for each tested condition using the LI-COR Odyssey scanner. Percent cell attachment was determined by scanning the signal for total seeded cells (prior to wash) and attached cells (post-wash) and normalizing the attached cell MFI to the total cell MFI, for each peptide and peptide concentration (FIG. 9A).

For data set [4], the system named is H1 hESCs. Description: Directed differentiation to definitive endoderm, qRT-PCR of SOX17 and FOXA2. The class given is cell-based, human. Conditions: for FOXA2 gene expression, fold increase / SOX17 gene expression, upregulation compared to undifferentiated hESC controls: after DE induction (ActivinA + Wnt3A, 4 days); for FOXA2 expression, difference compared to Matrigel / SOX17 expression, difference compared to Matrigel: after DE induction. The protocol: (§1) hESC seeded on the peptide modified alginate hydrogels were propagated for 4 days in mTeSR1 with 10 μm Y-27632 prior to DE induction. DE was induced using 100 ng/ml ActivinA (R&D Systems) with 25 ng/ml Wnt3A (R&D Systems) for 4 days. Quantitative Reverse Transcriptase Polymerase Chain Reaction. mRNA was isolated using the NucleoSpin RNA II kit (Macherey-Nagel, Bethlehem, Pa.). cDNA was obtained using ImpromII Reverse Transcription (Promega, Madison, Wis.). Each PCR reaction contained 5 μl SYBR Green Master Mix (Agilent, Santa Clara, Calif.), 2 μl nuclease free H2O, 2 μl primer, and 10 cDNA. Samples were normalized to the house keeping gene GAPDH and analyzed relative to UD hESCs using the ΔΔCt method. Gene expression was measured with quantitative polymerase chain reaction (qRT-PCR) using an MX3005P system (Agilent).
Having confirmed that hPSCs maintained high pluripotency after being propagated on the E-cadherin mimicking substrates, the next question was if the differentiation potency was also maintained. To evaluate differentiation potential, cells were induced toward the definitive endoderm (DE) germ layer.
Background: Quantitative PCR measures a nucleic acid by following its amplification.

In data set [5] the test system is H1 hESCs. Description: Pluripotency after propagation, qRT-PCR of OCT4 and Nanog. The class given is cell-based, human. Conditions: 6 days on alginate conjugated with 50 μg/ml peptide. How it is done:
as §1
Having confirmed that the substrates supported attachment and propagation of hPSCs, the next step was to analyze the maintenance of hPSC pluripotency after propagation. hPSC pluripotency is the ability to become any cell type in the body, and along with self-renewal, is the defining characteristic of hPSCs. The maintenance of pluripotency is critical for the downstream differentiation of hPSC into any functional cell types, for cell therapy applications. hPSCs were seeded on alginate conjugated with 50 μg/ml of HAV10, ADT10, HAV6, or ADT, and propagated for 6 days. […] As before, cell morphology was similar across each peptide, and appeared to have similar morphology to the typical hPSC colony (FIG. 12A).

For data set [6], the system named is H1 hESCs. The data set can be described thus: Cell expansion by MTS assay, day 6 normalized to day 1. The class given is cell-based, human. Conditions: 6 days of propagation; alginate modified with 50 μg/ml peptide, or recombinant E-cadherin. How it is done:
To determine cell expansion, cellular metabolism was assayed on cells attached to alginate conjugated with 50 μg/ml of each peptide using the CellTiter 96® AQueous One Solution Cell Proliferation Assay (MTS) after 1 and 6 days of culture, according to manufacturer's instructions. Briefly, cells were incubated with the MTS solution at a 1:5 v/v dilution for 3 hours at 37° C. Absorbance intensity of the supernatant at 490 nm was measured using a Synergy 2 multi-mode Microplate Reader. Fold expansion was determined by normalizing the day 6 absorbance by the day 1 absorbance, for cells grown on each peptide-conjugated alginate substrate.
Since high cell expansion is necessary to generate clinically relevant numbers of hPSCs, we next quantified the expansion potential of hPSCs grown on each peptide. Expansion potential was determined by normalizing cell number after 6 days of propagation, by day 1 cell number using MTS.

Where “and” joins values, the source holds several entries; their conditions need not be identical. Identical values can stand only once. No end group written: not given here.

Consider “1-ethyl-3-(-3-dimethylaminopropyl) carbodiimide hydrochloride (EDC)/N-hydroxysuccinimide (NHS) [EDC/NHS]”, for which the “toxicity towards hPSC attachment and viability” value in data set [1] is on record as “mild toxicity”.

As to `[Ba+2].[Cl-].[Cl-]` [Barium Chloride (BaCl2), Barium Chloride], the “BaCl2 concentration supportive and strongly inductive of hPSC growth” value in data set [2] is given as less than 15 mM.

Consider “ADTPPV (also: conjugated to alginate hydrogel, site not given here) [ADT6]”, for which the “peptide concentration at which cell attachment peaked” value in data set [3] came to 50 µg/mL. Also, in data set [4], the “FOXA2 gene expression, fold increase” value is 174 fold and the “SOX17 gene expression, upregulation compared to undifferentiated hESC controls” value came to 3400 fold. Besides, in data set [5], the “Nanog gene expression, upregulation compared to Matrigel” value is listed as “on par with Matrigel” and the “OCT4 gene expression, upregulation compared to Matrigel” value is “on par with Matrigel”. The “fold expansion of hPSCs (day 6 / day 1)” value in data set [6] turned out to be 11 fold.

On to “LFSHAVSSNG (also: conjugated to alginate hydrogel, site not given here) [HAV10]”, for which the “peptide concentration at which cell attachment peaked” value in data set [3] was found to be 50 µg/mL. Also, in data set [4], the “FOXA2 expression, difference compared to Matrigel” value is “no statistical difference”; the “SOX17 expression, difference compared to Matrigel” value is reported as “no statistically significant difference”; the “FOXA2 gene expression, fold increase” value is 497 fold; the “SOX17 gene expression, upregulation compared to undifferentiated hESC controls” value was roughly 15000 fold. Further, the “fold expansion of hPSCs (day 6 / day 1)” value in data set [6] is “approximately 23 fold”.

For the compound “QGADTPPVGV (also: conjugated to alginate hydrogel, site not given here) [ADT10]”, in data set [3], the “cell attachment compared among peptides” value was “highest cell attachment among all peptides”. Further, in data set [4], the “FOXA2 expression, difference compared to Matrigel” value is reported as “no statistical difference”; the “SOX17 expression, difference compared to Matrigel” value was “no statistically significant difference”; the “FOXA2 gene expression, fold increase” value amounted to 409 fold; the “SOX17 gene expression, upregulation compared to undifferentiated hESC controls” value was roughly 13700 fold. In data set [5], the “Nanog gene expression, upregulation compared to Matrigel” value was 1.5 fold and 1.6 fold; the “OCT4 gene expression, upregulation compared to Matrigel” value was 3 fold and 3.6 fold. Besides, the “fold expansion of hPSCs (day 6 / day 1)” value in data set [6] was “approximately 14 fold”.

As for “SHAVSS (also: conjugated to alginate hydrogel, site not given here) [HAV6]”, in data set [4], the “FOXA2 gene expression, fold increase” value is listed as 355 fold and the “SOX17 gene expression, upregulation compared to undifferentiated hESC controls” value came to 5900 fold. Moreover, in data set [5], the “Nanog gene expression, upregulation compared to Matrigel” value stood at 1.5 fold and the “OCT4 gene expression, upregulation compared to Matrigel” value came out at 2 fold. In data set [6], the “fold expansion of hPSCs (day 6 / day 1)” value came to 16 fold.
